Experimental data reported in paper PMC11597202, “Novel Thiazole-Fused [4,5-g] or [5,4-g]Quinazolin-8-ones and Their Quinazoline Analogues: Synthesis and Biological Evaluation” (Pharmaceuticals, 2024).

Tests used:
[1] = In vitro cytotoxic assay, MDA-MB-231; format: cell-based; details: human, MDA-MB-231 cells (breast cancer cell line); read-out: In vitro cytotoxic activity IC50, MBA-MB-231; further: 0.1-25 µM tested
Procedure: (§1) Skin normal fibroblastic cells were purchased from Lonza (Basel, Switzerland). […] All culture media were supplemented by 10% of FBS, 1% of penicillin–streptomycin and 2 mM glutamine.
(§2) Chemicals were solubilized in DMSO at a concentration of 10 mM (stock solution) and diluted in culture medium to the desired final concentrations. […] Cells were plated in 96-well plates (4000 cells/well). Twenty-four hours after seeding, the cells were exposed to chemicals. […] Image acquisition and analysis were performed using a Cellomics ArrayScan VTI/HCS Reader (ThermoScientific, Les Ulis, France). The survival percentages were calculated as the percentage of cell number after compound treatment over cell number after DMSO treatment. The relative IC50 values were calculated using the curve fitting XLfit 5.5.0.5 (idbs) integrated in Microsoft Excel as an add-on.
(§3) 4.3.1. Cell culture. Skin normal fibroblastic cells are purchased from Lonza (Basel, Switzerland). Huh7- […]
(§4) from ATCC (American Type Culture Collection). […]
(§5) supplemented by 10% of FBS, 1% of penicillin-streptomycin and 2 mM glutamine.
(§6) 4.3.2. Cytotoxic assay. Chemicals were solubilized in DMSO at a concentration of 10 mM (stock solution) and diluted in culture medium to the desired final concentrations. The dose effect cytotoxic assays (IC50 determination) were performed by increasing the concentrations of each chemical (final well […]
(§7) Cells were plated in 96-well plates
(§8) (4000 cells/well). Twenty-four hours after seeding, cells were exposed to chemicals. After 48h of treatment, cells were washed in PBS and fixed in cooled 90% ethanol/5% acetic acid for 20 min and the […]
(§9) Image acquisition and analysis were performed using a Cellomics ArrayScan VTI/HCS Reader (ThermoScientific). The survival percentages were calculated as the percentage of cell number after compound treatment over cell number after DMSO treatment. The relative IC50 were calculated using the curve fitting XLfit 5.5.0.5 (idbs) integrated in Microsoft Excel as an add-on. The 4 Parameter Logistic Model or Sigmoidal Dose-Response Model describing the sigmoid-shaped response pattern was used (fit = (A+[(B-A)/(1+[(C/x)^D])]) where fit is the response and X is the tested concentration of the compound. The lower asymptote is A (also referred to as the bottom of the curve or lower plateau or the min) and the upper asymptote is B (also referred to as the top of the curve or upper plateau or the max). The slope of the linear part of the curve is described by the factor D. The parameter C is the concentration corresponding to the response midway between A and B. C is called “relative IC50” because it refers to the maximum response obtained by a […]
(§10) The results are represented as the mean ± standard error (SE) calculated from at least three independent experiments.

[2] = In vitro cytotoxic assay, HCT-116; format: cell-based; details: human, HCT-116 cells (colon cancer cell line)
Procedure: as §1, §2, §3, §4, §5, §6, §7, §8, §9, §10

GSK-3β = biological target: T1, GSK-3β (Homo sapiens, UniProt P49841); experiment: ADP-Glo kinase inhibition assay, GSK-3β; format: biochemical; details: percentage of maximum activity of the DMSO control, mean n = 2, 10 µM ATP, read-out: Residual activity GSK-3β; for remaining activity at 1 µM: 1 μM compound; for remaining activity at 10 µM: 10 μM compound
T1 construct: host or cells: Sf9 insect cells (baculovirus)
Procedure: (§11) Kinase enzymatic activities were assayed in 384-well plates using the ADP-Glo^TM assay kit (Promega, Madison, WI, USA) according to the recommendations of the manufacturer. This luminescent ADP detection assay was described by Zegzouti and co-workers and provides a homogeneous and high-throughput screening method to measure kinase activity by quantifying the amount of ADP produced during a kinase reaction. Briefly, the reactions were carried out in a final volume of 6 µL for 30 min at 30 °C in an appropriate kinase buffer (10 mM MgCl2, 1 mM EGTA, 1 mM DTT, 25 mM Tris-HCl pH 7.5, 50 µg/mL heparin), with peptide or protein as substrate in the presence of 10 µM ATP. Peptide substrates were obtained from ProteoGenix (Schiltigheim, France) or Sigma for Histone H1, Poly (L-glutamic acid–L-tyrosine) sodium salt, Casein and MBP. After that, 6 µL of ADP-Glo^TM Kinase Reagent was added to stop the kinase reaction. After an incubation time of 50 min at room temperature (rt), 12 µL of Kinase Detection Reagent was added for one hour at rt. The transmitted signal was measured using the Envision (PerkinElmer, Waltham, MA, USA) microplate luminometer and expressed as Relative Light Units (RLUs). Kinase activities are expressed as percentages of remaining kinase activities detected after treatment with 1 or 10 µM of the tested compounds. The maximum kinase activity was measured in the absence of inhibitor but with an equivalent dose of DMSO (solvent of the tested compounds).
(§12) 3. Kinase inhibition assays
(§13) Kinase enzymatic activities were assayed in 384-well plates using the ADP-GloTM assay kit (Promega, Madison, WI) according to the recommendations of the manufacturer. This luminescent ADP detection assay was described by Zegzouti and co-workers and provides a homogeneous and high-throughput screening method to measure kinase activity by quantifying the amount of ADP produced during a kinase reaction. Briefly, the reactions were carried out in a final volume of 6 µl for 30 min at 30°C in appropriate kinase buffer (10 mM MgCl2, 1 mM EGTA, 1 mM DTT, 25 mM Tris-HCl pH 7.5, 50 µg/mL heparin), with peptide or protein as substrate in the presence of 10 µM ATP. Peptide substrates were obtained from ProteoGenix (Schiltigheim, France) or Sigma for Histone H1, Poly (L-glutamic acid – L-tyrosine) sodium salt, Casein and MBP. After that, 6 µL of ADP-GloTM Kinase Reagent was added to stop the kinase reaction. After an incubation time of 50 min at room temperature (rt), 12 µL of Kinase Detection Reagent was added for 1 h at rt. The transmitted signal was measured using the Envision (PerkinElmer, Waltham, MA) microplate luminometer and expressed in Relative Light Unit (RLU). Kinase activities are expressed in percentages of remaining kinase activities detected after treatment with 1 or 10 µM of the tested compounds. The maximal kinase activity is measured in the absence of inhibitor but with an equivalent dose of DMSO (solvent of the tested compounds).
(§14) Table. Human protein kinases tested in the panel: CDK9, HASPIN, PIM1, GSK3b, CK1ε, JAK3, CLK1 […]
(§15) 1 Peptide substrates were obtained from ProteoGenix (Schiltigheim, France) or Sigma for Histone H1, Poly (L-glutamic acid – L-tyrosine) sodium salt, Casein and MBP; 2 “Sp” stands for phosphorylated serine.
(§16) Controls inhibitors: To validate each kinase assay, the following model inhibitors were used under the same conditions than the tested compounds: Staurosporine from Streptomyces sp.

CLK1 = biological target: T2, CLK1 (Homo sapiens, UniProt P49759); experiment: ADP-Glo kinase inhibition assay, CLK1; format: biochemical; details: percentage of maximum activity of the DMSO control, mean n = 2, 10 µM ATP, read-out: Residual activity CLK1; for remaining activity at 1 µM: 1 μM compound; for remaining activity at 10 µM: 10 μM compound
T2 construct: host or cells: Sf9 insect cells (baculovirus)
Procedure: as §11, §12, §13, §14, §15, §16

DYRK1A = biological target: T3, DYRK1A (Homo sapiens, UniProt Q13627); experiment: ADP-Glo kinase inhibition assay, DYRK1A; format: biochemical; details: percentage of maximum activity of the DMSO control, mean n = 2, 10 µM ATP, read-out: Residual activity DYRK1A; for remaining activity at 1 µM: 1 μM compound; for remaining activity at 10 µM: 10 μM compound
T3 construct: host or cells: Sf9 insect cells (baculovirus)
Procedure: as §11, §12, §13, §14, §15, §16

T1 sequence (P49841 whole entry): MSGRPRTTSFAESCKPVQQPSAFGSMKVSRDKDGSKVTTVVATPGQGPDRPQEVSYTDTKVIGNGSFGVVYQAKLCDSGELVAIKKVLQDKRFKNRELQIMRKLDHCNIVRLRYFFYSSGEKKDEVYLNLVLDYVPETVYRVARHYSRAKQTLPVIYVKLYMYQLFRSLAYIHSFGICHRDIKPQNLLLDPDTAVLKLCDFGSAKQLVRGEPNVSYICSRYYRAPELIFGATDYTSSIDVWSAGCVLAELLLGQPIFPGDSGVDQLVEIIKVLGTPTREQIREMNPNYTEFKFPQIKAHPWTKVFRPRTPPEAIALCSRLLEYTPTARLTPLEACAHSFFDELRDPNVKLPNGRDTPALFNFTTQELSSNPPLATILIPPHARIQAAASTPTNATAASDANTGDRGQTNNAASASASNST
T2 sequence (P49759 whole entry): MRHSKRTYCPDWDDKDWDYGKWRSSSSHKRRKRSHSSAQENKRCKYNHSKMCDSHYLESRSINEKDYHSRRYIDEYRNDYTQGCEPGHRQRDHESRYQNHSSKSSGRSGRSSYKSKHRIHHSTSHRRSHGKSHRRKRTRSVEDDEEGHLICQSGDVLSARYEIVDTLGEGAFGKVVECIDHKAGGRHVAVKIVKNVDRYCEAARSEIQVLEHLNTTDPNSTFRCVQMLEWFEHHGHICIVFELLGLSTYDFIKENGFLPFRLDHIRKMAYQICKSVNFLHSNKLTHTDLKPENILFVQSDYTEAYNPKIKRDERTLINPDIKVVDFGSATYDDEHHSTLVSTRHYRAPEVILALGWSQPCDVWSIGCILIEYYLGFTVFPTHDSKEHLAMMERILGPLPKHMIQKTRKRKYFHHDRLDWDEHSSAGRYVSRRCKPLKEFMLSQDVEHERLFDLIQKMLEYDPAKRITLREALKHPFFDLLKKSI

Structure (SMILES)	IC50 at 48 h [1]	IC50 at 48 h [2]	remaining activity at 1 µM (GSK-3β)	remaining activity at 10 µM (GSK-3β)	remaining activity at 1 µM (CLK1)	remaining activity at 10 µM (CLK1)	remaining activity at 1 µM (DYRK1A)	remaining activity at 10 µM (DYRK1A)
COC(=N)c1nc2ccc3ncn(Cc4ccccc4)c(=O)c3c2s1 [Compound I, methyl 8-benzyl-9-oxo-8,9-dihydrothiazolo[5,4-f]quinazoline-2-carbimidate, reference compound]	21 µM	18 µM	73%	23%	75%	27%	62%	21%
COC(=N)c1nc2cc3ncn(Cc4ccccc4)c(=O)c3cc2s1 [Compound 6b, Methyl 7-benzyl-8-oxo-7,8-dihydrothiazolo[5,4-g]quinazoline-2-carbimidate]	3 µM	1 µM	101%	107%	100%	102%	103%	109%
COC(=N)c1nc2c(ccc3c(=O)n(Cc4ccccc4)cnc32)s1 [Compound 6c, Methyl 7-benzyl-6-oxo-6,7-dihydrothiazolo[5,4-h]quinazoline-2-carbimidate]	13 µM	3 µM	81%	91%	95%	84%	100%	68%
COC(=N)c1nc2cc3ncnc(Nc4ccc(OC)cc4F)c3cc2s1 [Compound 15b, Methyl 8-[(2-fluoro-4-methoxyphenyl)amino]thiazolo[5,4-g]quinazoline-2-carbimidate]	–	–	101%	104%	102%	105%	95%	101%
COC(=N)c1nc2cc3c(Nc4ccc(OC)cc4F)ncnc3cc2s1 [Compound 15a, Methyl 8-[(2-fluoro-4-methoxyphenyl)amino]thiazolo[4,5-g]quinazoline-2-carbimidate]	9 µM	8 µM	90%	70%	89%	52%	72%	27%
COC(=N)c1nc2cc3c(=O)n(Cc4ccccc4)cnc3cc2s1 [Compound 6a, Methyl 7-benzyl-8-oxo-7,8-dihydrothiazolo[4,5-g]quinazoline-2-carbimidate]	20 µM	20 µM	94%	76%	97%	96%	100%	103%
COC(=N)c1nc2ccc3ncnc(Nc4ccc(OC)cc4F)c3c2s1 [Compound II, methyl 9-[(2-fluoro-4-methoxyphenyl)amino]thiazolo[5,4-f]quinazoline-2-carbimidate, reference compound]	5 µM	4 µM	–	–	–	–	–	–
COC(=N)c1nc2ccc3c(=O)n(Cc4ccccc4)cnc3c2s1 [Compound 6d, Methyl 7-benzyl-6-oxo-6,7-dihydrothiazolo[4,5-h]quinazoline-2-carbimidate]	11 µM	2 µM	94%	105%	89%	73%	83%	63%
